Assay results taken from PubChem BioAssay AID248 (DTP/NCI, 2004).
Several values for one entry are separate records, joined by “and”; a condition that tells them apart may be missing. Identical values can stand only once. Inconclusive results and toxic doses are left out. No stated cut-off is given here; in the data, active means T/C of 150% or more; inactive means T/C below 125%.

Test system: L1210 leukemia ip in BDF1 mice, survival T/C
Assay: NCI In Vivo Anticancer Drug Screen. Data for tumor model L1210 Leukemia (intraperitoneal) in B6D2F1 (BDF1) mice
Conditions: endpoint: mean survival time, higher = longer survival
Summary of the method: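 Mice bearing the transplanted tumor received compound or vehicle. Survival of the treated group was divided by that of the vehicle-treated control group to give the ratio.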

[1] = dose: 50.0 mg/kg/injection, schedule: Q01DX001 (ip), vehicle: saline
[2] = dose: 100.0 mg/kg/injection, schedule: Q01DX001 (ip), vehicle: saline
[3] = dose: 200.0 mg/kg/injection, schedule: Q01DX001 (ip), vehicle: saline
[4] = dose: 400.0 mg/kg/injection, schedule: Q01DX001 (ip), vehicle: saline
[5] = dose: 100.0 mg/kg/injection, schedule: Q01DX009 (ip), vehicle: Klucel (hydroxypropylcellulose) (HPC)
[6] = dose: 200.0 mg/kg/injection, schedule: Q01DX009 (ip), vehicle: Klucel (hydroxypropylcellulose) (HPC)
[7] = dose: 400.0 mg/kg/injection, schedule: Q01DX009 (ip), vehicle: Klucel (hydroxypropylcellulose) (HPC)
[8] = dose: 100.0 mg/kg/injection, schedule: Q04DX003 (ip), vehicle: Klucel (hydroxypropylcellulose) (HPC)
[9] = dose: 200.0 mg/kg/injection, schedule: Q04DX003 (ip), vehicle: Klucel (hydroxypropylcellulose) (HPC)
[10] = dose: 400.0 mg/kg/injection, schedule: Q04DX003 (ip), vehicle: Klucel (hydroxypropylcellulose) (HPC)
[11] = dose: 12.5 mg/kg/injection, schedule: Q04DX003 (ip), vehicle: saline
[12] = dose: 25.0 mg/kg/injection, schedule: Q01DX009 (ip), vehicle: saline
[13] = dose: 25.0 mg/kg/injection, schedule: Q04DX003 (ip), vehicle: saline
[14] = dose: 50.0 mg/kg/injection, schedule: Q01DX009 (ip), vehicle: saline
[15] = dose: 50.0 mg/kg/injection, schedule: Q04DX003 (ip), vehicle: saline
[16] = dose: 100.0 mg/kg/injection, schedule: Q04DX003 (ip), vehicle: saline
[17] = dose: 12.5 mg/kg/injection, schedule: Q01DX009 (ip), vehicle: Klucel (hydroxypropylcellulose) (HPC)
[18] = dose: 25.0 mg/kg/injection, schedule: Q01DX009 (ip), vehicle: Klucel (hydroxypropylcellulose) (HPC)
[19] = dose: 100.0 mg/kg/injection, schedule: Q04DX002 (ip), vehicle: Klucel (hydroxypropylcellulose) (HPC)
[20] = dose: 200.0 mg/kg/injection, schedule: Q04DX002 (ip), vehicle: Klucel (hydroxypropylcellulose) (HPC)
[21] = dose: 25.0 mg/kg/injection, schedule: Q01DX009 (ip), vehicle: saline with Tween-80
[22] = dose: 50.0 mg/kg/injection, schedule: Q01DX009 (ip), vehicle: saline with Tween-80
[23] = dose: 100.0 mg/kg/injection, schedule: Q01DX009 (ip), vehicle: saline with Tween-80

Measured: T/C

COc1ccc(C(C)=O)cc1
inactive: dose: 100.0 mg/kg/injection, schedule: Q04DX002 (ip), vehicle: saline + alcohol 92 % of control | dose: 200.0 mg/kg/injection, schedule: Q04DX002 (ip), vehicle: saline + alcohol 96 % of control | dose: 400.0 mg/kg/injection, schedule: Q04DX002 (ip), vehicle: saline + alcohol 92 % of control

O=C(Nc1cccc(C(F)(F)F)c1)c1cccc(C(=O)Nc2cccc(C(F)(F)F)c2)c1
inactive: dose: 12.5 mg/kg/injection, schedule: Q04DX003 (ip), vehicle: saline with Tween-80 96 % of control | dose: 25.0 mg/kg/injection, schedule: Q04DX003 (ip), vehicle: saline with Tween-80 91 % of control | dose: 50.0 mg/kg/injection, schedule: Q04DX003 (ip), vehicle: saline with Tween-80 90 % of control

NC(C(=O)O)c1cccc(F)c1 (stereo not drawn)
inactive: [1] 98 % of control | [2] 101 % of control | [3] 101 % of control | [4] 95 % of control

O=C1c2ccccc2-c2nc3cc4ccccc4cc3nc21
inactive: dose: 100.0 mg/kg/injection, schedule: Q01DX001 (ip), vehicle: Klucel (hydroxypropylcellulose) (HPC) 98 % of control | [5] 98 % of control | dose: 200.0 mg/kg/injection, schedule: Q01DX001 (ip), vehicle: Klucel (hydroxypropylcellulose) (HPC) 88 % of control | [6] 97 % of control | dose: 400.0 mg/kg/injection, schedule: Q01DX001 (ip), vehicle: Klucel (hydroxypropylcellulose) (HPC) 97 % of control | [7] 102 % of control

CC(=O)C1CCc2c(O)c3c(c(O)c2C1)C(=O)c1ccccc1C3=O (stereo not drawn)
inactive: dose: 87.5 mg/kg/injection, schedule: Q04DX003 (ip), vehicle: saline with Tween-80 94 % of control | dose: 175.0 mg/kg/injection, schedule: Q04DX003 (ip), vehicle: saline with Tween-80 91 % of control | dose: 350.0 mg/kg/injection, schedule: Q04DX003 (ip), vehicle: saline with Tween-80 94 % of control

O=[N+]([O-])c1ccc(C=Nc2cccc3ccccc23)s1
inactive: [8] 95 % of control | [9] 95 % of control | [10] 92 % of control

COC1OC(CN(CCO)CCO)C2OC(C)(C)OC12 (stereo not drawn)
inactive: [11] 97 % of control | [12] 98 % of control | [13] 89 % of control | [14] 94 % of control | [15] 97 % of control | dose: 100.0 mg/kg/injection, schedule: Q01DX009 (ip), vehicle: saline 89 % of control | [16] 94 % of control | dose: 335.0 mg/kg/injection, schedule: Q01DX009 (ip), vehicle: saline 101 % of control

[Cl][Hg][c]1cccs1
inactive: [17] 95 % of control | [18] 93 % of control

CCCCCCCCCCCCN=C(N)N/C(N)=N/S(=O)(=O)c1ccc(OCCCCC)cc1
inactive: [19] 100 % of control | [20] 95 % of control | dose: 400.0 mg/kg/injection, schedule: Q04DX002 (ip), vehicle: Klucel (hydroxypropylcellulose) (HPC) 95 % of control

S=C(SC(=S)N(C1CCCCC1)C1CCCCC1)N(C1CCCCC1)C1CCCCC1
inactive: [21] 92 % of control | [22] 90 % of control | [23] 86 % of control and 89 % of control

CC1CC(=O)NN1C(O)c1ccc2c(c1)OCO2 (stereo not drawn)
inactive: [19] 97 % of control | [20] 97 % of control

CCOC(=O)C(C(C)=O)C(c1ccc(N(C)C)cc1)C(C(C)=O)C(=O)OCC (stereo not drawn)
inactive: dose: 25.6 mg/kg/injection, schedule: Q04DX002 (ip), vehicle: saline with Tween-80 97 % of control | dose: 64.0 mg/kg/injection, schedule: Q04DX002 (ip), vehicle: saline with Tween-80 93 % of control | dose: 100.0 mg/kg/injection, schedule: Q04DX003 (ip), vehicle: saline with Tween-80 89 % of control | dose: 160.0 mg/kg/injection, schedule: Q04DX002 (ip), vehicle: saline with Tween-80 93 % of control | dose: 200.0 mg/kg/injection, schedule: Q04DX003 (ip), vehicle: saline with Tween-80 92 % of control | dose: 400.0 mg/kg/injection, schedule: Q04DX002 (ip), vehicle: saline with Tween-80 89 % of control | dose: 400.0 mg/kg/injection, schedule: Q04DX003 (ip), vehicle: saline with Tween-80 95 % of control

CCOC(=O)C(C(=O)OCC)N(CC)CC
inactive: [5] 96 % of control | [8] 98 % of control | [9] 93 % of control | [7] 95 % of control | [10] 109 % of control

CN(C)CCC=C1c2ccccc2C=Cc2ccccc21
inactive: dose: 3.12 mg/kg/injection, schedule: Q01DX009 (ip), vehicle: saline 98 % of control | dose: 6.25 mg/kg/injection, schedule: Q01DX009 (ip), vehicle: saline 93 % of control and 104 % of control | dose: 12.5 mg/kg/injection, schedule: Q01DX009 (ip), vehicle: saline 107 % of control and 96 % of control | [12] 98 % of control and 101 % of control | [13] 112 % of control and 103 % of control | [14] 109 % of control | [15] 98 % of control and 105 % of control

COc1ccc(NC(=O)Oc2ccc(Br)cc2Br)c(Cl)c1
inactive: dose: 50.0 mg/kg/injection, schedule: Q01DX009 (ip), vehicle: saline + alcohol 87 % of control | dose: 100.0 mg/kg/injection, schedule: Q01DX009 (ip), vehicle: saline + alcohol 87 % of control | dose: 200.0 mg/kg/injection, schedule: Q01DX009 (ip), vehicle: saline + alcohol 97 % of control

COC1OC2COc3ccccc3OC2C2C1N2C(=N)N[N+](=O)[O-] (stereo not drawn)
inactive: dose: 40.0 mg/kg/injection, schedule: Q04DX002 (ip), vehicle: saline 102 % of control | dose: 160.0 mg/kg/injection, schedule: Q04DX002 (ip), vehicle: saline 102 % of control

COc1cc(OC)cc(C(O)C(C)NC(C)C)c1 (stereo not drawn)
inactive: dose: 6.25 mg/kg/injection, schedule: Q01DX009 (ip), vehicle: Klucel (hydroxypropylcellulose) (HPC) 95 % of control | [17] 92 % of control | [11] 108 % of control | [18] 92 % of control | [13] 97 % of control | dose: 50.0 mg/kg/injection, schedule: Q01DX009 (ip), vehicle: Klucel (hydroxypropylcellulose) (HPC) 95 % of control | [15] 105 % of control | [5] 101 % of control | [16] 103 % of control

CCCCCCCCCCNC(=O)C[n+]1cccc(C(=O)NC)c1
inactive: [11] 95 % of control | [13] 89 % of control

CCCCCCCCCCCn1cnc2c(=S)nc[nH]c21
inactive: dose: 12.5 mg/kg/injection, schedule: Q01DX005 (ip), vehicle: other 103 % of control | dose: 25.0 mg/kg/injection, schedule: Q01DX005 (ip), vehicle: other 97 % of control | dose: 50.0 mg/kg/injection, schedule: Q01DX005 (ip), vehicle: other 98 % of control | dose: 100.0 mg/kg/injection, schedule: Q01DX005 (ip), vehicle: other 98 % of control | dose: 200.0 mg/kg/injection, schedule: Q01DX005 (ip), vehicle: other 97 % of control

Cn1c(=O)c2ccccc2c2ccccc21
inactive: [5] 99 % of control | [8] 100 % of control | [6] 97 % of control | [9] 100 % of control | [7] 100 % of control | [10] 105 % of control

O=S(=O)(F)c1cc(C[P+](c2ccccc2)(c2ccccc2)c2ccccc2)ccc1Cl
inactive: dose: 6.25 mg/kg/injection, schedule: Q01DX009 (ip), vehicle: saline with Tween-80 105 % of control | dose: 12.5 mg/kg/injection, schedule: Q01DX009 (ip), vehicle: saline with Tween-80 102 % of control | [21] 103 % of control

OCCN(CCO)c1cccc(C(F)(F)F)c1
inactive: [1] 96 % of control | [2] 100 % of control | [3] 106 % of control | [4] 96 % of control

CSc1nc(N)c(C#N)cc1C#N
inactive: [23] 88 % of control | dose: 200.0 mg/kg/injection, schedule: Q01DX009 (ip), vehicle: saline with Tween-80 88 % of control | dose: 400.0 mg/kg/injection, schedule: Q01DX009 (ip), vehicle: saline with Tween-80 88 % of control

CC(=O)N/N=C/C=C/c1ccccc1
inactive: [21] 95 % of control | [22] 103 % of control
